Structures can show the parent of a compound that is named as a salt. Where two headings read alike, the source gives them in different places.
Target: T1, recombinant IRAK-4 kinase (Homo sapiens, UniProt Q9NWZ3)
T1 construct: purchased Millipore, USA
T1 sequence (Q9NWZ3 1-460): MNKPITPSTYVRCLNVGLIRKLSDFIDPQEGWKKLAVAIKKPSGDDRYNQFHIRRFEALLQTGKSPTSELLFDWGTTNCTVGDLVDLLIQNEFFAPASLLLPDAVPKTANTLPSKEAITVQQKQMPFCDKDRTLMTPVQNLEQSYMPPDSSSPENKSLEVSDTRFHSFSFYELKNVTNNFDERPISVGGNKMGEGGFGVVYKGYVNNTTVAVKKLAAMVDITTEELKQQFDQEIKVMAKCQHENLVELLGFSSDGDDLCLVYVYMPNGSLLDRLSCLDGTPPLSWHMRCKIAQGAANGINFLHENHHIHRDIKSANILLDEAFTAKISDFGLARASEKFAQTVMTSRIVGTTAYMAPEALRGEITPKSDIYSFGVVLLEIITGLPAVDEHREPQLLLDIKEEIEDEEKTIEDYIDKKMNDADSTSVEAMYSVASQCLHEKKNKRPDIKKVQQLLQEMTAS
Test: IRAK-4 Biochemical Assay (TR-FRET, percent inhibition)
Description: Compounds were tested for their potential to inhibit IRAK-4 enzyme in a TR-FRET assay using recombinant IRAK-4 kinase from Millipore, USA. The assay buffer was 50 mM Tris-HCl pH 7.5, 20 mM MgCl2, 1 mM EGTA, 2 mM DTT, 3 mM MnCl2 and 0.01% Tween 20.5 ng of IRAK-4 kinase was used for the assay. After pre-incubation of enzyme with test compound for 30 minutes at room temperature, a substrate mixture containing 100 nM Biotin Histone H3 (Millipore, USA) and 20 μM ATP (Sigma, USA) was added and the reaction was incubated for 30 min. Post incubation, the reaction was stopped by the addition of stop mix containing 40 mM EDTA, 1 nM of Europium-Anti-Phospho-Histone H3 (Ser10) antibody (Perkin Elmer, USA) and 20 nM SureLight Allophycocyanin-Streptavidin (Perkin Elmer, USA). The fluorescence emission at 615 nm and 665 nm were measured at an excitation of 340 nm and the percent inhibition was estimated from the ratio of the fluorescence intensities [(F665/F615)×10000].

[1] = read-out: % inhibition of IRAK-4 @0.1 μM, compound at 0.1 μM, TR-FRET, 20 μM ATP, 100 nM Biotin Histone H3
[2] = read-out: % inhibition of IRAK-4 @ 1 μM, compound at 1 μM, TR-FRET, 20 μM ATP, 100 nM Biotin Histone H3

Structure (SMILES) | inhibition at 0.1 µM [1] [%] | inhibition at 1 µM [2] [%] | inhibition at 0.1 µM (read-out: % inhibition of IRAK-4 @0.1 μM) [%] | inhibition at 1 µM (read-out: % inhibition of IRAK-4 @ 1 μM) [%]
Cc1cc(-c2nc(C(=O)Nc3cc4oc(N5CCOCC5)nc4nc3N3CC[C@@H](OC(=O)CN)C3)co2)ccn1 [Example 97, (R)-1-(6-(2-(2-methylpyridin-4-yl)oxazole-4-carboxamido)-2-morpholinooxazolo[4,5-b]pyridin-5-yl)pyrrolidin-3-yl glycinate] | 87 | 99 |  | 
O=C(Nc1cc2sc(N3CCOCC3)nc2nc1N1CCCCC1)c1cccc(N2CCCC(O)C2)n1 (stereo not drawn) [Example 55, 6-(3-hydroxypiperidin-1-yl)-N-(2-morpholino-5-(piperidin-1-yl)thiazolo[4,5-b]pyridin-6-yl)picolinamide] | 94 | 98 |  | 
Cc1ccc(-c2nc3nc(N4CCOCC4)sc3cc2NC(=O)c2cnn3cccnc23)nc1 [Example 20, N-(5-(5-methylpyridin-2-yl)-2-morpholinothiazolo[4,5-b]pyridin-6-yl)pyrazolo[1,5-a]pyrimidine-3-carboxamide] | 97 | 98 |  | 
O=C(Nc1cc2oc(N3CCOCC3)nc2nc1C1CC1)c1cnn2cccnc12 [Example 107, N-(5-cyclopropyl-2-morpholinooxazolo[4,5-b]pyridin-6-yl)pyrazolo[1,5-a]pyrimidine-3-carboxamide hydrochloride] | 57 | 92 |  | 
Nc1ccc(-c2cccc(C(=O)Nc3cc4oc(N5CCOCC5)nc4nc3N3CCOCC3)n2)cn1 [Example 92, 6′-amino-N-(2,5-dimorpholinooxazolo[4,5-b]pyridin-6-yl)-[2,3′-bipyridine]-6-carboxamide hydrochloride] | 78 | 96 |  | 
Nc1cc(-c2nc(C(=O)Nc3cc4sc(N5CCOCC5)nc4nc3N3CCCCC3)co2)c(Cl)cn1 [Example 12, 2-(2-amino-5-chloropyridin-4-yl)-N-(2-morpholino-5-(piperidin-1-yl)thiazolo[4,5-b]pyridin-6-yl)oxazole-4-carboxamide] | 98 | 98 |  | 
O=C(Nc1cc2sc(N3CCOCC3)nc2nc1N1CCCCC1)c1cccc(N2CCC(CCO)CC2)n1 [Example 35, 6-(4-(2-hydroxyethyl)piperidin-1-yl)-N-(2-morpholino-5-(piperidin-1-yl)thiazolo[4,5-b]pyridin-6-yl)picolinamide] | 92 | 95 |  | 
NCC(=O)OC1CCN(c2cccc(C(=O)Nc3cc4sc(N5CCOCC5)nc4nc3N3CCCCC3)n2)CC1 [Example 66, 1-(6-((2-morpholino-5-(piperidin-1-yl)thiazolo[4,5-b]pyridin-6-yl)carbamoyl)pyridin-2-yl)piperidin-4-yl glycinate] | 90 | 95 |  | 
Nc1ccc(-c2cccc(C(=O)Nc3cc4oc(N5CCOCC5)nc4nc3N3CC[C@@H](O)C3)n2)cn1 [Example 90, (R)-6′-amino-N-(5-(3-hydroxypyrrolidin-1-yl)-2-morpholinooxazolo[4,5-b]pyridin-6-yl)-[2,3′-bipyridine]-6-carboxamide hydrochloride] | 87 | 97 |  | 
O=C(Nc1cc2sc(N3CCOCC3)nc2nc1N1CCCCC1)c1cc(N2CC[C@H](O)C2)ccn1 [Example 68, (S)-4-(3-hydroxypyrrolidin-1-yl)-N-(2-morpholino-5-(piperidin-1-yl)thiazolo[4,5-b]pyridin-6-yl)picolinamide] | 23 | 38 |  | 
O=C(Nc1cc2sc(N3CCOCC3)nc2nc1N1CCCCC1)c1cccc(N2CCC[C@H](O)C2)n1 [Example 29, (S)-6-(3-hydroxypiperidin-1-yl)-N-(2-morpholino-5-(piperidin-1-yl)thiazolo[4,5-b]pyridin-6-yl)picolinamide] | 98 | 99 |  | 
O=C(Nc1cc2sc(N3CCOCC3)nc2nc1N1CCC[C@@H](O)C1)c1cccc(N2CCCCC2)n1 [Example 40, (R)-N-(5-(3-hydroxypiperidin-1-yl)-2-morpholinothiazolo[4,5-b]pyridin-6-yl)-6-(piperidin-1-yl)picolinamide] | 96 | 99 |  | 
CCOP(=O)(OCC)O[C@H]1CCN(c2cccc(C(=O)Nc3cc4sc(N5CCOCC5)nc4nc3N3CCCCC3)n2)C1 [Example 47, (S)-diethyl (1-(6-((2-morpholino-5-(piperidin-1-yl)thiazolo[4,5-b]pyridin-6-yl)carbamoyl)pyridin-2-yl)pyrrolidin-3-yl)phosphate] |  |  | 18 | 58
O=C(Nc1cc2sc(N3CCOCC3)nc2nc1C(F)(F)F)c1cccc(N2CCC(O)C2)n1 (stereo not drawn) [Example 44, 6-(3-hydroxypyrrolidin-1-yl)-N-(2-morpholino-5-(trifluoromethyl)thiazolo[4,5-b]pyridin-6-yl)picolinamide] | 90 | 96 |  | 
O=C1CN(c2cccc(C(=O)Nc3cc4sc(N5CCOCC5)nc4nc3N3CCCCC3)n2)CCN1 [Example 61, N-(2-morpholino-5-(piperidin-1-yl)thiazolo[4,5-b]pyridin-6-yl)-6-(3-oxopiperazin-1-yl)picolinamide] | 84 | 91 |  | 
NCC(=O)OC1CCN(c2cccc(C(=O)Nc3cc4sc(N5CCOCC5)nc4nc3N3CCOCC3)n2)C1 (stereo not drawn) [Example 79, 1-(6-((2,5-dimorpholinothiazolo[4,5-b]pyridin-6-yl)carbamoyl)pyridin-2-yl)pyrrolidin-3-yl glycinate] | 70 | 96 |  | 
Cc1ccc(C(=O)Nc2cc3sc(N4CCOCC4)nc3nc2N2CCCCC2)nc1-c1ccc(N)nc1 [Example 85, 6′-amino-3-methyl-N-(2-morpholino-5-(piperidin-1-yl)thiazolo[4,5-b]pyridin-6-yl)-[2,3′-bipyridine]-6-carboxamide] | 101 | 100 |  | 
O=C(Nc1cc2sc(N3CCOCC3)nc2nc1N1CCCCC1)c1cccc(N2CCC(CO)C2)n1 (stereo not drawn) [Example 77, 6-(3-(hydroxymethyl)pyrrolidin-1-yl)-N-(2-morpholino-5-(piperidin-1-yl)thiazolo[4,5-b]pyridin-6-yl)picolinamide] | 98 | 99 |  | 
O=C(Nc1cc2sc(N3CCOCC3)nc2nc1N1CCC[C@@H](O)C1)c1cccc(N2CCC(O)CC2)n1 [Example 38, (R)-6-(4-hydroxypiperidin-1-yl)-N-(5-(3-hydroxypiperidin-1-yl)-2-morpholinothiazolo[4,5-b]pyridin-6-yl)picolinamide] | 98 | 99 |  | 
O=C(Nc1cc2sc(N3CCOCC3)nc2nc1N1CCCCC1)c1ccnc(N2CC[C@@H](O)C2)n1 [Example 59, (R)-2-(3-hydroxypyrrolidin-1-yl)-N-(2-morpholino-5-(piperidin-1-yl)thiazolo[4,5-b]pyridin-6-yl)pyrimidine-4-carboxamide] | 91 | 99 |  | 
Nc1cccc(-c2nc(C(=O)Nc3cc4oc(N5CCOCC5)nc4nc3N3CCCCC3)co2)n1 [Example 93, 2-(6-aminopyridin-2-yl)-N-(2-morpholino-5-(piperidin-1-yl)oxazolo[4,5-b]pyridin-6-yl)oxazole-4-carboxamide] | 87 | 93 |  | 

Reference: US20180208605A1, “Substituted Aza Compounds as IRAK-4 Inhibitors” (AURIGENE DISCOVERY TECHNOLOGIES LIMITED, priority 2015, published 2018)
